Measured values from patent US6524810B2, “Method of making bioluminescent assay reagent based on non-viable E. coli” (Azur Environmental, priority 1998, dated 2003).

Key:
Type in all cases: cell-based
[1] = test system: recombinant bioluminescent E. coli strain HB101; assay: Light output of culture during Zeocin treatment (Deltatox luminometer); settings: 1.5 mg/ml Zeocin; 5 to 300 minutes
Experimental: (§1) 1. Bioluminescent genetically modified E. coil strain HB101 (E. coli HB101 made bioluminescent by transformation with a plasmid carrying the lux operon of Vibrio fischeri constructed by the method of Shaw and Kado, as described in Biotechnology 4: 560-564) were grown from a frozen stock in 5 ml of low salt medium (LB (5 g/ml NaCl)+glycerol+MgSO4) for 24 hours.
(§2) 2. 1 ml of the 5 ml culture was then used to inoculate 200 ml of low salt medium in a shaker flask and the resultant culture grown to an OD630 of 0.407 (exponential growth phase).
(§3) 3. 50 ml of this culture was removed to a fresh sterile shaker flask (control cells).
4. Zeocin™ was added to the 150 ml of culture in the original shaker flash, to a final concentration of 1.5 mg/ml. At the same time, an equivalent volume of water was added to the 50 ml culture removed from the original flask (control cells).
(§4) 5. The time course of cell inactivation was monitored by removing samples from the culture at 5, 60, 120, 180, 240 and 300 minutes after the addition of Zeocin™ and taking measurements of both light output (measured using a Deltatox luminometer) and viable count (per ml, determined using the method given in Example 3 below) for each of the samples. Samples of the control cells were removed at 5 and 300 minutes after the addition of water and measurements of light output and viable count taken as for the Zeocin™ treated cells.

[2] = test system: recombinant bioluminescent E. coli strain HB101; assay: Light output of reconstituted freeze dried assay reagent; settings: cells exposed to 1.5 mg/ml Zeocin for 5 hours, reconstituted in 0.2M sucrose
Experimental: Five hours after the addition of Zeocin™ or water the remaining bacterial cells in the Zeocin™ treated and control cultures were harvested by the centrifugation, washed (to remove traces of Zeocin™ from the Zeocin™ treated culture), re-centrifuged and resuspended in cryoprotectant to an OD630 of 0.25. 200 μl aliquots of the cells in cryoprotectant were dispensed into single shot vials, and freeze dried. Freeze dried samples of the Zeocin™ treated cells and control cells were reconstituted in 0.2M sucrose to form assay reagents and the light output of the assay reagents measured at various times after reconstitution.

[3] = test system: Zeocin treated recombinant bioluminescent E. coli HB101 assay reagent; assay: ZnSO4 sensitivity assay, Zeocin treated assay reagent; settings: for SENSITIVITY-EC50 VALUES, ZEOCIN TREATED: 15 minutes exposure to ZnSO4, % toxic effect on light output
Experimental: (§5) 1. Bioluminescent genetically modified E. coil strain HB101 (E. coli HB101 made bioluminescent by transformation with a plasmid carrying the lux operon of vibrio fischeri constructed by the method of Shaw and Kado, as described in Biotechnology 4: 560-564) was grown in fermenter as a batch culture in low salt medium (LB(5 g/ml NaCl)+glycerol+MgSO4).
(§6) 2. Two aliquots of the culture were removed from the fermenter into separate sterile shaker flasks at each of three different stages of growth i.e. at OD630 values of 0.038 (lag phase growth), 1.31 (mid-exponential phase growth) and 2.468 (stationary phase growth).
3. One aliquot of culture for each of the three growth stages was inactivated by contact with Zeocin™ (1 mg Zeocin™ added per 2.5×10^6 cells, i.e. the concentration of Zeocin™ per cell is kept constant) for 300 minutes and then processed into assay reagent by freeze drying and reconstitution, as described in part (B) of Example 1.
(§7) 5. Samples of each of the three Zeocin™ treated and three control assay reagents were then evaluated for sensitivity to toxicant (ZnSO4) according to the following assay protocol:
1. ZnSO4 solutions were prepared in pure water at 30, 10, 3, 1, 0.3 and 0.1 ppm. Pure water was also used as a control.
2. Seven vials of each of the three Zeocin™ treated and each of the three control assay reagents (i.e. one for each of the six ZnSO4 solutions and one for the pure water control) were reconstituted using 0.5 ml of reconstitution solution (eg 0.2M sucrose) and then left to stand at room temperature for 15 minutes to allow the light output to stabilize. Base line (time zero) readings of light output were then measured for each of the reconstituted reagents.
3. 0.5 ml aliquots of each of the six ZnSO4 solutions and the pure water control were added to separate vials of reconstituted assay reagent. This was repeated for each of the different Zeocin™ treated and control assay reagents.
(§8) 4. The vials were incubated at room temperature and light output readings were taken 5, 10, 15, 20, 25 and 30 minutes after addition of ZnSO4 solution.
5. The % toxic effect for each sample was calculated as follows: [formula]
where: Co=light in control at time zero
Ct=light in control at reading time
So=light in sample at time zero
(§9) St=light in sample at reading time

[4] = test system: recombinant bioluminescent E. coli strain HB101; assay: Inactivation of bioluminescent E. coli: viable count time course; settings: 1.5 mg/ml Zeocin; exponential growth phase culture
Experimental: as §1, §2, §3
4. Zeocin™ was added to the 150 ml of culture in the original shaker flash, to a final concentration of 1.5 mg/ml. […]
as §4, with “Samples of the control cells were removed at 5 and 300 minutes after the addition of water and measurements of light output and viable count taken as for the Zeocin™ treated cells.” left out
5. The number of bacterial colonies present for each of the three aliquots at each of the serial dilutions were counted and the values averaged. Viable count was calculated per ml of bacterial culture.

[5] = test system: control (Zeocin untreated) recombinant bioluminescent E. coli HB101 assay reagent; assay: ZnSO4 sensitivity assay, control assay reagent; settings: 15 minutes exposure to ZnSO4, % toxic effect on light output
Experimental: as §5, §6
4. An equal volume of water was added to the second aliquot of culture for each of the three growth stages and the cultures processed into assay reagent as described above.
as §7
1. […]
2. […] Base line (time zero) readings of light output were then measured for each of the reconstituted reagents. […]
as §8
5. The % toxic effect for each sample was calculated as follows: [formula] […]
Ct=light in control at reading time […]
as §9

Compound | light output from the culture with Zeocin contact time [1] | light output of reconstituted assay reagent versus control (Zeocin untreated) cells [2] | effect of Zeocin treatment on sensitivity of assay reagent to ZnSO4 ([3]; 1 mg Zeocin per 2.5×10^6 cells for 300 minutes, three growth stages, versus control reagents) | contact time for complete inactivation of the culture (viable count) [4] | SENSITIVITY-EC50 VALUES, ZEOCIN TREATED ([3]; Expotential phase assay reagent) | SENSITIVITY-EC50 VALUES, ZEOCIN TREATED ([3]; Lag Phase assay reagent) | SENSITIVITY-EC50 VALUES, ZEOCIN TREATED ([3]; Stationary phase assay reagent) | SENSITIVITY-EC50 VALUES, CONTROL CELLS ([5]; Lag Phase assay reagent) | SENSITIVITY-EC50 VALUES, CONTROL CELLS ([5]; Stationary phase assay reagent)
Cc1c(N)nc([C@H](CC(N)=O)NC[C@H](N)C(N)=O)nc1C(=O)N[C@H](C(=O)N[C@H](C)[C@@H](O)[C@H](C)C(=O)N[C@H](C(=O)NCCC1=N[C@@H](c2nc(C(=O)NCCCCN=C(N)N)cs2)CS1)[C@@H](C)O)[C@@H](O[C@@H]1O[C@@H](CO)[C@@H](O)[C@H](O)[C@@H]1O[C@H]1O[C@H](CO)[C@@H](O)[C@H](OC(N)=O)[C@@H]1O)c1cnc[nH]1 [Zeocin™, phleomycin D1] | decrease gradually | not significantly different | does not significantly affect | 3 h | – | – | – | – | –
O=S(=O)([O-])[O-].[Zn+2] [ZnSO4] | – | – | – | – | 0.446 ppm ZnSO4 | 1.445 ppm ZnSO4 | 0.426 ppm ZnSO4 | 1.580 ppm ZnSO4 | 0.457 ppm ZnSO4
